In patent US12692259B2, “Morpholine-containing and piperazine-containing CXCR4 modulators and uses related thereto” (Emory University, priority 2021, dated 2026):

Test: PAMPA assay
Type: in vitro ADME
Settings: pH 7.4
Experimental: PAMPA assay was performed by BioAssay Systems Services or Bristol Myers Squibb. The method used by BioAssay Systems Services is described below.
Stock solutions in DMSO for all compounds (10 mM) were thawed. The assay was performed in duplicate by following the PAMPA-096 procedure for sample plating. 4% Lecithin in dodecane solution was prepared by resuspending the dried lecithin with 750 μL dodecane. PBS pH 7.4 was used as the diluent. Two sets of plates and equilibrium solutions were incubated for 4 hours at room temperature. Acceptor and equilibrium solutions were analyzed in a UV plate. OD280 nm was used for High Permeability Control (chloramphenicol). OD270 nm was used for Medium Permeability Control (diclofenac) and Low Permeability Control (theophylline). OD254 nm was used for the test compounds.
Data analysis was performed by using the peak absorbance for each respective test compound and Permeability Control to determine the Permeability Rate (Pe) via the following equation: […]
where ODA is the absorbance of Acceptor Solution, ODE is the absorbance of the Equilibrium Standard, and C is determined by the equation below: […]
where Donor Volume (VD) is 0.2 cm^3, Acceptor Volume (VA) is 0.3 cm^3, and Membrane Area (Area) is 0.24 cm^2.

Papp at 4 h [×10⁻⁶ cm/s] | SMILES
12.3 | CN(C[C@H]1Cc2c(cccc2N2CC3CC2CO3)CN1)[C@H]1CCCc2cccnc21 (stereo in doubt) [EMU-325, (S)—N—(((R)-5-((1R,4R)-2-oxa-5-azabicyclo[2.2.1]heptan-5-yl)-1,2,3,4-tetrahydroisoquinolin-3-yl)methyl)-N-methyl-5,6,7,8-tetrahydroquinolin-8-amine]
3 | c1cnc2c(c1)CCC[C@@H]2N(CCCN1CCNCC1)C[C@H]1Cc2c(cccc2N2CCOCC2)CN1 [EMU-184, (S)—N—(((R)-5-morpholino-1,2,3,4-tetrahydroisoquinolin-3-yl)methyl)-N-(3-(piperazin-1-yl)propyl)-5,6,7,8-tetrahydroquinolin-8-amine]
19.2 | Cc1cnc(CN(C)C[C@H]2Cc3c(cccc3N3CCOCC3)CN2)c(C)c1 [EMU-260, (R)-1-(3,5-dimethylpyridin-2-yl)-N-methyl-N-((5-morpholino-1,2,3,4-tetrahydroisoquinolin-3-yl)methyl)methanamine]
22.6 | CN(CCCCN(C[C@H]1Cc2c(cccc2N2CCOCC2)CN1)[C@H]1CCCc2cccnc21)C1CCC(F)(F)CC1 [EMU-273, N1-(4,4-difluorocyclohexyl)-N1-methyl-N4-(((R)-5-morpholino-1,2,3,4-tetrahydroisoquinolin-3-yl)methyl)-N4-((S)-5,6,7,8-tetrahydroquinolin-8-yl)butane-1,4-diamine]
10 | CCN1CCN(CCCN(C[C@H]2Cc3c(cccc3N3CCOCC3)CN2)[C@H]2CCCc3cccnc32)CC1 [EMU-275, (S)—N-(3-(4-ethylpiperazin-1-yl)propyl)-N—(((R)-5-morpholino-1,2,3,4-tetrahydroisoquinolin-3-yl)methyl)-5,6,7,8-tetrahydroquinolin-8-amine]
16.5 | CN(C[C@H]1Cc2c(cccc2N2C[C@H]3CC[C@@H](C2)O3)CN1)[C@H]1CCCc2cccnc21 [EMU-295, (S)—N—(((R)-5-((1R,5S)-8-oxa-3-azabicyclo[3.2.1]octan-3-yl)-1,2,3,4-tetrahydroisoquinolin-3-yl)methyl)-N-methyl-5,6,7,8-tetrahydroquinolin-8-amine]
15.5 | C[C@@H]1CN(c2cccc3c2C[C@H](CN(C)[C@H]2CCCc4cccnc42)NC3)CCO1 [EMU-317, (S)—N-methyl-N—(((R)-5-((R)-2-methylmorpholino)-1,2,3,4-tetrahydroisoquinolin-3-yl)methyl)-5,6,7,8-tetrahydroquinolin-8-amine]
16.6 | C[C@H]1CN(c2cccc3c2C[C@H](CN(C)[C@H]2CCCc4cccnc42)NC3)CCO1 [EMU-318, (S)—N-methyl-N—(((R)-5-((S)-2-methylmorpholino)-1,2,3,4-tetrahydroisoquinolin-3-yl)methyl)-5,6,7,8-tetrahydroquinolin-8-amine]
16 | CN(C[C@H]1Cc2c(cccc2N2CCOCC2)CN1)[C@H]1CCOc2cccnc21 [EMU-319, (4S)—N-methyl-N-((5-morpholino-1,2,3,4-tetrahydroisoquinolin-3-yl)methyl)-3,4-dihydro-2H-pyrano[3,2-b]pyridin-4-amine]
13.1 | CN(C[C@H]1Cc2c(cccc2N2CCO[C@@H](CO)C2)CN1)[C@H]1CCCc2cccnc21 [EMU-322, ((R)-4-((R)-3-((methyl((S)-5,6,7,8-tetrahydroquinolin-8-yl)amino)methyl)-1,2,3,4-tetrahydroisoquinolin-5-yl)morpholin-2-yl)methanol]
15.7 | C[C@@H]1COCCN1c1cccc2c1C[C@H](CN(C)[C@H]1CCCc3cccnc31)NC2 [EMU-338, (S)—N-methyl-N—(((R)-5-((R)-3-methylmorpholino)-1,2,3,4-tetrahydroisoquinolin-3-yl)methyl)-5,6,7,8-tetrahydroquinolin-8-amine]
17.1 | C[C@H]1COCCN1c1cccc2c1C[C@H](CN(C)[C@H]1CCCc3cccnc31)NC2 [EMU-339, (S)—N-methyl-N—(((R)-5-((S)-3-methylmorpholino)-1,2,3,4-tetrahydroisoquinolin-3-yl)methyl)-5,6,7,8-tetrahydroquinolin-8-amine]
